Results on 9 compounds are retold here after patent US12522601B2, “1,3,4-oxadiazole derivative compounds as histone deacetylase 6 inhibitor, and the pharmaceutical composition comprising the same” (CHONG KUN DANG PHARMACEUTICAL CORP., priority 2020, dated 2026).

Test [1] concerns the target T1, human recombinant HDAC6 (Homo sapiens, UniProt Q9UBN7).
T1 construct: purchased Calbiochem Inc. 382180
T1 sequence (Q9UBN7 1-1215): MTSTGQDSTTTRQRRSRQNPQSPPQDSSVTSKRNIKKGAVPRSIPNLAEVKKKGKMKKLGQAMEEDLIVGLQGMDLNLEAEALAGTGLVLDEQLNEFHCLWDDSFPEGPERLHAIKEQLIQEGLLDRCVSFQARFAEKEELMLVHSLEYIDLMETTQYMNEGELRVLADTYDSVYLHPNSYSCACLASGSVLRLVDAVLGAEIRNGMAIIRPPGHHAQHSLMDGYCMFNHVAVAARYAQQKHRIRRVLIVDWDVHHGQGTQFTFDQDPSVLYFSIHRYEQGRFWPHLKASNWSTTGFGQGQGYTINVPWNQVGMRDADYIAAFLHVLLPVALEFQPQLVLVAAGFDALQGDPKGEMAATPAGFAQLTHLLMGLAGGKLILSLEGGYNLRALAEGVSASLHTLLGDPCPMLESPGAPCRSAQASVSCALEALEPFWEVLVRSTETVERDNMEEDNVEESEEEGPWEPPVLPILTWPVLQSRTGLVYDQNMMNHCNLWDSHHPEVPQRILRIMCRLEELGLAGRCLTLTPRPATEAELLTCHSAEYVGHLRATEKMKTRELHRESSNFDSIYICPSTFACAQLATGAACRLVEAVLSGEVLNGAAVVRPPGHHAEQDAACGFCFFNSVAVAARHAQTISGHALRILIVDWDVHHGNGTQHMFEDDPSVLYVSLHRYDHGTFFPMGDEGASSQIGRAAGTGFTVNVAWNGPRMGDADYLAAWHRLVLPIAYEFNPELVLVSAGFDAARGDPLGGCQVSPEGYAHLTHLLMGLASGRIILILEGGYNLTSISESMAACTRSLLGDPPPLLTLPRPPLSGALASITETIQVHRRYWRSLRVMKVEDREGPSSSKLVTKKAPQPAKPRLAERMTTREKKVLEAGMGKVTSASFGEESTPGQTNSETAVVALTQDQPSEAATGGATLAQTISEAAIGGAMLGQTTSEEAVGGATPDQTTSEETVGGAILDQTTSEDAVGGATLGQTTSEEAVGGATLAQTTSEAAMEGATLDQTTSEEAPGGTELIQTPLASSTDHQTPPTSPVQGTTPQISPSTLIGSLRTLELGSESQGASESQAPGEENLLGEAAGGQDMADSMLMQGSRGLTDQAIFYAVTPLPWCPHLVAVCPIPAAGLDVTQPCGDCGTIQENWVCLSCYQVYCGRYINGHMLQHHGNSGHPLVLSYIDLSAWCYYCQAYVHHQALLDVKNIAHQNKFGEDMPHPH
The experiment in a line: In vitro HDAC enzyme activity inhibition assay, HDAC6 (HDAC Fluorimetric Drug Discovery Kit). It is filed as biochemical. The note with it: for HDAC6 Selectivity (fold): HDAC6 versus HDAC1; for IC50: human recombinant HDAC6, same protocol as the HDAC1 test. The method in brief: (§1)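 Fluorimetric deacetylase kit; 0.3 μg human recombinant enzyme with 10 μM Fluor de Lys-SIRT1 substrate, 60 min at 30° C, then developer 30 min. Fluorescence read at Ex 360/Em 460; IC50 from 5-fold compound dilutions. HDAC1 and HDAC6 run by the same protocol.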

In test [2] the target is T2, human recombinant HDAC1 (Homo sapiens, UniProt Q13547).
T2 construct: purchased Enzo Life Sciences, Inc. BML-SE456
The experiment in a line: In vitro HDAC enzyme activity inhibition assay, HDAC1 (HDAC Fluorimetric Drug Discovery Kit). It is filed as biochemical. The note with it: human recombinant HDAC1, Fluor de Lys-SIRT1 substrate 10 μM, 30° C. for 60 minutes. The method in brief:
as §1

T2 sequence (Q13547 whole entry): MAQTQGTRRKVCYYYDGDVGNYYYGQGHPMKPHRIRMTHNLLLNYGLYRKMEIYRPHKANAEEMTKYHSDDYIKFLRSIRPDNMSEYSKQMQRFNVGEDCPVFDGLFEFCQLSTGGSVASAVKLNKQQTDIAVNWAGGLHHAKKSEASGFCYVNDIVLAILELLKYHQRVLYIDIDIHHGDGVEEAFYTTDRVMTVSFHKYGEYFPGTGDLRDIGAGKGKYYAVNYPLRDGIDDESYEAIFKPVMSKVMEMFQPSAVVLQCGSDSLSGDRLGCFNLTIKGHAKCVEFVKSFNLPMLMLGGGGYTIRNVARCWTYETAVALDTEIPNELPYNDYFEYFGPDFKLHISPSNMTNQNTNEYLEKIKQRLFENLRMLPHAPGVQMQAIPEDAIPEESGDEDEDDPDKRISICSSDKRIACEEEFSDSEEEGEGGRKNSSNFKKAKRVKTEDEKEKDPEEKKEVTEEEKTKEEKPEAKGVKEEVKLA

As for `CC(CO)N1CCN(C(=O)N(Cc2cn3ccc(-c4nnc(C(F)F)o4)cc3n2)c2cccc(F)c2)CC1` (stereo not drawn) [Compound 4086, N-((7-(5-(difluoromethyl)-1,3,4-oxadiazol-2-yl)imidazo[1,2-a]pyridin-2-yl)methyl)-N-(3-fluorophenyl)-4-(1-hydroxypropan-2-yl)piperazine-1-carboxamide], in test [1], the “HDAC6 Selectivity (fold)” value is reported as 249 fold and the IC50 (in general, the midpoint of a concentration-inhibition curve) came to 0.201 µM. In test [2], the half-maximal inhibitory concentration (IC50) is greater than 50 µM.

With `FC(F)c1nnc(-c2ccn3cc(CNc4ccccc4)nc3c2)o1` [Compound 3668, N-((7-(5-(difluoromethyl)-1,3,4-oxadiazol-2-yl)imidazo[1,2-a]pyridin-2-yl)methyl)aniline], in test [1], the “HDAC6 Selectivity (fold)” value was 299 fold. Further, the values for the IC50 in test [1] and in test [2] were 0.167 µM and greater than 50 µM, respectively.

For the compound `FC(F)c1nnc(-c2ccn3cc(Cc4ccc5c(c4)OCO5)nc3c2)o1` [Compound 3596, 2-(2-(benzo[d][1,3]dioxol-5-ylmethyl)imidazo[1,2-a]pyridin-7-yl)-5-(difluoromethyl)-1,3,4-oxadiazole], in test [1], the “HDAC6 Selectivity (fold)” value came to 160 fold and the IC50 amounted to 0.313 µM. The 50% inhibitory concentration (IC50) in test [2] is greater than 50 µM.

Consider `COc1ccc(Cc2cn3ccc(-c4nnc(C(F)F)o4)cc3n2)cc1` [Compound 3590], for which, in test [1], the “HDAC6 Selectivity (fold)” value is recorded as 116 fold and the IC50 was determined as 0.432 µM. Besides, the IC50 in test [2] is greater than 50 µM.

Consider `CN(C)C(=O)N1CCC(C(=O)N(Cc2cn3ccc(-c4nnc(C(F)F)o4)cc3n2)c2ccccc2)CC1` [Compound 4130, N4-((7-(5-(difluoromethyl)-1,3,4-oxadiazol-2-yl)imidazo[1,2-a]pyridin-2-yl)methyl)-N1,N1-dimethyl-N4-phenylpiperidine-1,4-dicarboxamide], for which the “HDAC6 Selectivity (fold)” value in test [1] came out at 133 fold. Moreover, the IC50 in test [1] is 0.375 µM; in test [2] it was greater than 50 µM.

Consider `O=C(C1CCC1)N1CC(C(=O)N(Cc2cn3ccc(-c4nnc(C(F)F)o4)cc3n2)c2cccc(F)c2)C1` [Compound 4200, 1-(cyclobutanecarbonyl)-N-((7-(5-(difluoromethyl)-1,3,4-oxadiazol-2-yl)imidazo[1,2-a]pyridine-2-yl)methyl)-N-(3-fluorophenyl) azetidine-3-carboxamide], for which, in test [1], the “HDAC6 Selectivity (fold)” value amounted to 228 fold and the IC50 was found to be 0.22 µM. Also, in test [2], the IC50 is greater than 50 µM.

Consider `O=C(N1CCN(c2ccccn2)CC1)N(Cc1cn2ccc(-c3nnc(C(F)F)o3)cc2n1)c1ccccc1` [Compound 4048, N-((7-(5-(difluoromethyl)-1,3,4-oxadiazol-2-yl)imidazo[1,2-a]pyridin-2-yl)methyl)-N-phenyl-4-(pyridin-2-yl)piperazine-1-carboxamide], for which the “HDAC6 Selectivity (fold)” value in test [1] is 203 fold. Also, the IC50 was 0.247 µM in test [1] and greater than 50 µM in test [2].

Consider `CC(=O)N1CCC(C(=O)N(Cc2cn3ccc(-c4nnc(C(F)F)o4)cc3n2)c2ccccc2)CC1` [Compound 4122, 1-acetyl-N-((7-(5-(difluoromethyl)-1,3,4-oxadiazol-2-yl)imidazo[1,2-a]pyridin-2-yl)methyl)-N-phenylpiperidine-4-carboxamide], for which, in test [1], the “HDAC6 Selectivity (fold)” value was found to be 142 fold and the 50% inhibitory concentration (IC50) was determined as 0.353 µM. Further, the half-inhibitory concentration (IC50) in test [2] was greater than 50 µM.

For the compound `O=C(C1CCC1)N1CCN(C(=O)N(Cc2cn3ccc(-c4nnc(C(F)F)o4)cc3n2)c2cccc(F)c2)CC1` [Compound 4095, 4-(cyclobutanecarbonyl)-N-((7-(5-(difluoromethyl)-1,3,4-oxadiazol-2-yl)imidazo[1,2-a]pyridine-2-yl)methyl)-N-(3-fluorophenyl)piperazine-1-carboxamide], in test [1], the “HDAC6 Selectivity (fold)” value turned out to be 185 fold and the IC50 was 0.27 µM. In addition, the half-inhibitory concentration (IC50) in test [2] is greater than 50 µM.
